US10428081B2, “EGFR inhibitor, preparation method and use thereof” (Shanghai Hansoh Biomedical Co., Ltd., priority 2014, dated 2019)

How the values were obtained:
PK analysis in rats = format: in vivo, Sprague Dawley (SD) rats; details: SD rats, single intragastric administration, 5 mg/10 ml/kg; for AUC(0-t): read-out: AUC0-8; for MRT inf: read-out: MRT0-∞
Protocol: 1.0 ml of intravenous blood was collected and placed in a K2EDTA test tube. The blood was centrifuged at RT 6000 rpm for 5 minutes to isolate the plasma, which was stored at −80° C.
Liquid Chromatography: • Condition of Liquid chromatography Shimadzu LC-20AD pump • Chromatographic column: phenomenex Gemiu 5 μm C18 50×4.6 mm • Mobile phase: Solution A is 0.1% formic acid aqueous solution, and Solution B is acetonitrile • Flow rate: 0.8 mL/min • Elution time: 0-3.5 minutes, the eluent used was as follows:
Condition of mass spectrometer: positive ion electrospray ionization (ESI) mode. • Analysis results of liquid chromatography and mass spectrometry:

in vivo = details: beagle, dog, po, 2 mg/kg
Protocol: 1. 1.0 ml of intravenous blood was collected and placed in a Heparin test tube. The blood was centrifuged at RT 6000 rpm for 5 minutes to isolate the plasma, which was stored at −80° C.
2. 160 μL of acetonitrile were added to 40 μL of plasma sample for precipitation, and then the mixture was centrifuged at 3500 rpm for 5 minutes.
3. 100 μL of treated solution was taken, and the concentration of the test compound was analyzed by LC/MS/MS. The LC/MS/MS analytical instrument was AB Sciex API 4000.
Liquid Chromatography: • Condition of Liquid chromatography: Shimadzu LC-20AD pump • Chromatographic column: phenomenex Gemiu 5 μm C18 50×4.6 mm • Mobile phase: Solution A is 0.1% formic acid aqueous solution, and Solution B is acetonitrile • Flow rate: 0.8 mL/min • Elution time: 0-3.5 minutes, the eluent used was as follows: […]

[1] = target: exon 20 T790M mutant-type EGFR enzyme (Homo sapiens, UniProt P00533, T790M); assay: Enzymologic experiment of T790M mutant-type EGFR (TR-FRET); format: biochemical; details: for IC50: T790M EGFR enzyme, TR-FRET, ATP 1 to 10 uM; for Selectivity of wild-type/mutant-type: ratio WT IC50 / T790M IC50, enzyme
Outline: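 Compound dilutions preincubated 10 min at room temperature; reaction ended with EDTA, then labeled antibody added for 1 h at room temperature. Inhibition rates derived from TR-FRET fluorescence signal, and IC50 obtained by curve fitting across concentrations.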

wild-type EGFR enzyme = wild-type EGFR enzyme (Homo sapiens, UniProt P00533); assay: Enzymologic experiment of wild-type (WT) EGFR (TR-FRET); format: biochemical; details: ATP 0.1 to 5 uM
Outline: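 Wild-type EGFR (0.1 to 1 nM final) preincubated with serially diluted compound for 10 minutes at room temperature; reaction stopped with EDTA, then labelled antibody added for 1 hour at room temperature. TR-FRET signal converted to inhibition rates; IC50 from curve fitting across concentrations.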

NCI-H1975 cells = assay: Inhibition of NCI-H1975 cell proliferation (CellTiter-Glo); format: cell-based; details: for IC50: Homo sapiens, NCI-H1975, 72 h, NCI-H1975 cell proliferation, 72 hours, CellTiter-Glo, read-out: EGFR IC50 (nM) H1975; for Selectivity of wild-type/mutant-type: ratio A431 IC50 / H1975 IC50, cells
A431 cells = assay: Inhibition of A431 cell proliferation (CellTiter-Glo); format: cell-based; details: Homo sapiens, A-431, 72 h, read-out: EGFR IC50 (nM) A431
Outline: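 Viability read as CellTiter-Glo luminescence; IC50 by curve fitting of inhibition rates.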

[2] = Sprague-Dawley, rat, po, 5 mg/kg, plasma

Sequence of wild-type EGFR enzyme (P00533 25-1210): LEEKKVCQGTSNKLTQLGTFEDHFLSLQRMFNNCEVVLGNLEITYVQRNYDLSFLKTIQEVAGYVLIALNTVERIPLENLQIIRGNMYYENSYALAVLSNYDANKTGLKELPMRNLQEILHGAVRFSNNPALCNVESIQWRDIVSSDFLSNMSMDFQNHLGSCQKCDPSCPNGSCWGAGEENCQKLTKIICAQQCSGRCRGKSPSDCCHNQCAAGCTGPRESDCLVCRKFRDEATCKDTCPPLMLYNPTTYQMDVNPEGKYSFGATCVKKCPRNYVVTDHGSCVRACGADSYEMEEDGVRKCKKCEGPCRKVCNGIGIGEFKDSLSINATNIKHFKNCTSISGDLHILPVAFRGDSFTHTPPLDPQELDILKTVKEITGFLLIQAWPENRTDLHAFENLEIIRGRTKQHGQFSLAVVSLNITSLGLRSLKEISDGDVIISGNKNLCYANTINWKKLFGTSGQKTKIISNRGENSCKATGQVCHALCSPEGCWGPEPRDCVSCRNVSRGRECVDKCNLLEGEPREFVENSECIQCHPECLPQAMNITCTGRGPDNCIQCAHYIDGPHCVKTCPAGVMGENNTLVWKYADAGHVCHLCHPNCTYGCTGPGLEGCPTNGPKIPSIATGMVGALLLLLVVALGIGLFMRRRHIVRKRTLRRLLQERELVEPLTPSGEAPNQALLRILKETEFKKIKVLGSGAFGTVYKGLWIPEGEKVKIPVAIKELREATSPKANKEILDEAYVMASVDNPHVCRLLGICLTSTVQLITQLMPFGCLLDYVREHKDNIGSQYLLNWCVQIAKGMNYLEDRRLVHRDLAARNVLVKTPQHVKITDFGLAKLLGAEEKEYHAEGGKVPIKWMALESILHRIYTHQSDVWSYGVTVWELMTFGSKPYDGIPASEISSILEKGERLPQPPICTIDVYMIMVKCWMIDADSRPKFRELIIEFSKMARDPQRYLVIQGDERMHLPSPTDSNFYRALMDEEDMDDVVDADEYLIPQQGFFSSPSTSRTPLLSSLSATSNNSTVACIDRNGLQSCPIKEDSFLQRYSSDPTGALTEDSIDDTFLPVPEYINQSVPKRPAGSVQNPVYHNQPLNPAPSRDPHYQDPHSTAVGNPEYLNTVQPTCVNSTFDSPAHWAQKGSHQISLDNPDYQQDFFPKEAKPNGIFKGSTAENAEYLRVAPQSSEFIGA
Sequence of exon 20 T790M mutant-type EGFR enzyme (P00533 25-1210 T790M): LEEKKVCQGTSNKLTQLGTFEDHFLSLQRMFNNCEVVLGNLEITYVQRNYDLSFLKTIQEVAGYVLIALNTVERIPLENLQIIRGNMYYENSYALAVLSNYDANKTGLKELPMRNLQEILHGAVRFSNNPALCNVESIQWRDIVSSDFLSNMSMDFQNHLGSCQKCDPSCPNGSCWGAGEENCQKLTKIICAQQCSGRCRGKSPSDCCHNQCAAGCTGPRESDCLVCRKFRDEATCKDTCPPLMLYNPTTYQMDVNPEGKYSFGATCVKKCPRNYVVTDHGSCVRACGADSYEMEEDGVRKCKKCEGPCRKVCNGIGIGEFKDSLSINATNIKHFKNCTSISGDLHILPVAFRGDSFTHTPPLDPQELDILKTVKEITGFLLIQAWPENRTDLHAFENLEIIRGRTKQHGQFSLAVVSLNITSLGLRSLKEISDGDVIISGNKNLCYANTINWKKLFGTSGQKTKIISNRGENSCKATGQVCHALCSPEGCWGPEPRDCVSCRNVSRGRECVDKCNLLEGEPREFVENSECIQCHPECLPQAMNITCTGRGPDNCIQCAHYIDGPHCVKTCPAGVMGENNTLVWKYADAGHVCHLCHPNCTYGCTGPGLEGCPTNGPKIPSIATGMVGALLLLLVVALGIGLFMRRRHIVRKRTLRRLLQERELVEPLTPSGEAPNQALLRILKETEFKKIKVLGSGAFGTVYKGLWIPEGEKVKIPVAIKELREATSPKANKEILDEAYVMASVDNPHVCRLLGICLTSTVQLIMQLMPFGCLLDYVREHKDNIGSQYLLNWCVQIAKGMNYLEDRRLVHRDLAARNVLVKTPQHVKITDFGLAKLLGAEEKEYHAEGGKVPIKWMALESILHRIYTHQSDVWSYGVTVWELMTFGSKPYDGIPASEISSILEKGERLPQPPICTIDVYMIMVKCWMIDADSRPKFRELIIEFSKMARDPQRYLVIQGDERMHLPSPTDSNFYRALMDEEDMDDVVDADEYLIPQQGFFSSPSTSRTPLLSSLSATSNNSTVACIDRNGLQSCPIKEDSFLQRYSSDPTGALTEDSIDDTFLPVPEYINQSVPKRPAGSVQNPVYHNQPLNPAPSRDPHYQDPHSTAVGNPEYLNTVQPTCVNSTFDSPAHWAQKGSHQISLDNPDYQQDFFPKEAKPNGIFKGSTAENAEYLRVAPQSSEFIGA

Cmax (PK analysis in rats; [2]) [ng/mL] | Tmax (PK analysis in rats; [2]) [h] | AUC(0-t) (PK analysis in rats; [2]) [ng·h/mL] | AUC(0-t) (in vivo) [ng·h/mL] | Cmax (in vivo) [ng/mL] | Tmax (in vivo) [h] | IC50 [1] [nM] | Selectivity of wild-type/mutant-type [1] | IC50 (wild-type EGFR enzyme) [nM] | IC50 (NCI-H1975 cells) [nM] | IC50 (A431 cells) [nM] | metabolites in the plasma of rat (PK analysis in rats) | half-life (PK analysis in rats; [2]) [h] | AUC(0-inf) (in vivo) [ng·h/mL] | Structure (SMILES) | t1/2 (PK analysis in rats; plasma) [h] | AUC(0-inf) (PK analysis in rats; [2]) [ng·h/mL] | MRT inf (PK analysis in rats; [2]) [h] | MRT inf (in vivo) [h] | half-life (in vivo) [h] | Selectivity of wild-type/mutant-type (NCI-H1975 cells)
16.4 | 0.5 | 77.4 | 2060 | 126 | 6 | – | – | – | – | – | – | – | – | C=CC(=O)Nc1cc(Nc2nccc(-c3cn(C4CC4)c4ccccc34)n2)c(OC)cc1N(C)CCNC [Metabolite of Example 26] | – | – | – | – | – | –
58.4 | 0.5 | 235 | 4580 | 528 | 1 | 0.49 | 3.9 | 1.89 | 2.44 | 509 | only one metabolite | 2.3 | 5150 | C=CC(=O)Nc1cc(Nc2nccc(-c3cn(C4CC4)c4ccccc34)n2)c(OC)cc1N(C)CCN(C)C [Example 26, N-(5-((4-(1-cyclopropyl-1H-indol-3-yl)pyrimidin-2-yl)amino)-2-((2-(dimethylamino)ethyl)(methyl)amino)-4-methoxyphenyl)acrylamide] | – | 268 | 3.9 | 9.2 | 7 | 208.7
– | – | – | – | – | – | 0.32 | 2.5 | 0.8 | 5.9 | 212 | – | – | – | C=CC(=O)Nc1cc(Nc2ncc(Cl)c(-c3cn(C)c4ccccc34)n2)c(OC(F)F)cc1N(C)CCN(C)C [Example 5, N-(5-((5-chloro-4-(1-methyl-1H-indol-3-yl)pyrimidin-2-yl)amino)-4-(difluoromethoxy)-2-((2-(dimethylamino)ethyl)(methyl)amino)phenyl)acrylamide] | – | – | – | – | – | 36
– | – | – | – | – | – | 1.85 | 10.75 | 19.9 | 12.3 | 325 | – | – | – | C=CC(=O)Nc1cc(Nc2nccc(-n3ncc4cc(OCCOC)ccc43)n2)c(OC)cc1N(C)CCN1CCCC1 [Example 134, N-(4-methoxy-5-((4-(5-(2-methoxyethoxy)-1H-indazol-1-yl)pyrimidin-2-yl)amino)-2-(methyl(2-(pyrrolidin-1-yl)ethyl)amino)phenyl)acrylamide] | – | – | – | – | – | 26.45
– | – | – | – | – | – | 1.83 | 1.0 | 1.89 | 6.4 | 272 | – | – | – | C=CC(=O)Nc1cc(Nc2nccc(-c3cn(C)c4cc(F)c(F)cc34)n2)c(OC)cc1N(C)CCN(C)C [Example 28, N-(5-((4-(5,6-difluoro-1-methyl-1H-indol-3-yl)pyrimidin-2-yl)amino)-2-((2-(dimethylamino)ethyl)(methyl)amino)-4-methoxyphenyl)acrylamide] | – | – | – | – | – | 42.52
– | – | – | – | – | – | 0.36 | 19.9 | 7.11 | 4.56 | 93.2 | – | – | – | C=CC(=O)Nc1cc(Nc2nccc(-c3cn(C)c4cc(OC)ccc34)n2)c(OC)cc1N(C)CCN(C)C [Example 25, N-(2-((2-(dimethylamino)ethyl)(methyl)amino)-4-methoxy-5-((4-(6-methoxy-1-methyl-1H-indol-3-yl)pyrimidin-2-yl)amino)phenyl)acrylamide] | – | – | – | – | – | 20.45
– | – | – | – | – | – | 0.71 | 10.4 | 7.44 | 13.2 | 800 | – | – | – | C=CC(=O)Nc1cc(Nc2nccc(-c3cn(C)c4cc(C5CC5)ccc34)n2)c(OC)cc1N(C)CCN(C)C [Example 22, N-(5-((4-(6-cyclopropyl-1-methyl-1H-indol-3-yl)pyrimidin-2-yl)amino)-2-((2-(dimethylamino)ethyl)(methyl)amino)-4-methoxyphenyl)acrylamide] | – | – | – | – | – | 60.6
– | – | – | – | – | – | 0.51 | 4.90 | 2.5 | 5.93 | 138 | – | – | – | C=CC(=O)Nc1cc(Nc2nccc(-n3ncc4c(OC)cccc43)n2)c(OC)cc1N(C)CCN(C)C [Example 41, N-(2-((2-(dimethylamino)ethyl)(methyl)amino)-4-methoxy-5-((4-(4-methoxy-1H-indazol-1-yl)pyrimidin-2-yl)amino)phenyl)acrylamide] | – | – | – | – | – | 23.36

Structure (SMILES) | Cmax (PK analysis in rats; [2]) [ng/mL] | Tmax (PK analysis in rats; [2]) [h] | AUC(0-t) (PK analysis in rats; [2]) [ng·h/mL] | AUC(0-t) (in vivo) [ng·h/mL] | Cmax (in vivo) [ng/mL] | Tmax (in vivo) [h] | IC50 [1] [nM] | Selectivity of wild-type/mutant-type [1] | IC50 (wild-type EGFR enzyme) [nM] | IC50 (NCI-H1975 cells) [nM] | IC50 (A431 cells) [nM] | metabolites in the plasma of rat (PK analysis in rats) | half-life (PK analysis in rats; [2]) [h] | AUC(0-inf) (in vivo) [ng·h/mL] | t1/2 (PK analysis in rats; plasma) [h] | AUC(0-inf) (PK analysis in rats; [2]) [ng·h/mL] | MRT inf (PK analysis in rats; [2]) [h] | MRT inf (in vivo) [h] | half-life (in vivo) [h] | Selectivity of wild-type/mutant-type (NCI-H1975 cells)
C=CC(=O)Nc1cc(Nc2nccc(-c3cn(C)c4ccccc34)n2)c(OC)cc1N(C)CCN(C)C [AZD-9291, reference compound] | 58.3 | 2 | 278 | – | 81.4 | 1 | – | – | – | – | – | – | – | – | 3.8 | 283 | 3.9 | 9 | 5.4 | –
